Assay results from publication PMC5632533, “Mechanisms of action and in vivo antibacterial efficacy assessment of five novel hybrid peptides derived from Indolicidin and Ranalexin against Streptococcus pneumoniae” (PeerJ, 2017).

Key:
S. pneumoniae = test: ATP efflux assay; type: cell-based, Streptococcus pneumoniae; conditions: 1 × 10^7 CFU/ml; peptides 125 µg/ml (RN7-IN7 500 µg/ml); luciferin/luciferase, ATP standard curve; mean ± SD, three independent experiments
ICR (CD-1) mice = test: In vivo toxicity in mice (SC, IN, IP routes); parameters: Aspartate aminotransferase, AST / Alanine transaminase, ALT / Alkaline phosphatase, ALP / Creatinine / Urea / Total bilirubin: unit not given here; conditions: for Eosinophil / Erythrocytes, RBC / Hematocrit, HCT / Hemoglobin Hgb / Lymphocytes / Mean corpuscular haemoglobin concentration, MCHC / Mean corpuscular haemoglobin, MCH / Mean corpuscular volume, MCV / Monocytes / White blood cells, WBC / platelet Counts, PLT / Granulocytes / Alanine transaminase, ALT / Alkaline phosphatase, ALP / Aspartate aminotransferase, AST / Creatinine / Total bilirubin / Urea: 3 doses (1hr, 12hr, 24hr), RN7-IN9, RN7-IN6 10 mg/kg, day 7, mean±SD, 4 mice; for Alanine transaminase, ALT / Alkaline phosphatase, ALP / Aspartate aminotransferase, AST / Creatinine / Total bilirubin / Urea: serum
Experimental: In this study, 4-week old male, pathogen free ICR (CD-1) mice were purchased from InVivos (Lim Chu Kang, Singapore) and used to assess the in vivo toxicity and antibacterial efficacy of the novel peptides, as these animals are by far the most commonly used model for the study of pneumococcal disease ([Chiavolini, Pozzi & Ricci, 2008]). The mice were kept in ventilated polycarbonate cages (12 h light/dark cycle, 20 ± 2 °C and 55% relative humidity). All mice were familiarized for seven days before any experimental procedure and were given unlimited pellets and water ad libitum. All animal experimentations were conducted according to the guidelines approved by Faculty of Medicine Institutional Animal Care and Use Committee (FOM IACUC), University of Malaya (ethics Reference no. : 2013-07-15/MMBTR/SDS).
In order to evaluate the possible toxic effects correlated to peptides administered in mice, four hybrid peptides RN7-IN10, RN7-IN9, RN7-IN8 and RN7-IN6 were chosen for in vivo toxicity assessment, due to their promising in vitro antibacterial activity ([Jindal et al., 2015]). Mice were separated into four groups (each with four mice) and were injected with respective peptides at 1 h, 12 h, and 24 h (three-dose regimen) via IP, SC, and IN administration routes. The hybrid peptides were first administered at high doses (100 mg/kg for IP route, 100 mg/kg for SC routes and 20 mg/kg for IN route). Any abnormal behavior was recorded and survival of mice was noted as well. In case adverse effects such as high physical stress, severe lethargy, physical inactiveness, and/or death were detected, lower graded doses were given. All the administered mice were monitored for seven days or until death occurred. At day seven post administration, all animals were sacrificed and blood and organs were collected. Untreated mice were used as a control group.
Mice used to evaluate the in vivo toxicity and antibacterial activity of the hybrid peptides using the subcutaneous (SC) and intranasal (IN) administration routes, were anesthetized using a combination of a standard dose of xylazine (ilium xylazil-20, 10 mg/kg) and ketamine (Narketan®-10, 100 mg/kg) through intraperitoneal (IP) injection. After seven days of treatment, the in vivo toxicity and antibacterial efficacy experiments were ended and the surviving mice were anesthetized. Blood samples for Hematological and biochemical analysis were collected via cardiac puncture using a 25G syringe (BD bioscience, San Jose, CA, USA). Whole blood for heamatological analysis was collected in 500 µl dipotassium EDTA microtainer tubes (BD Bioscience, USA). About 500 µl of blood collected an eppedorff tube and centrifuged at 8000 rpm for 5 min and then the serum was transferred into a new 1.5 ml tube for biochemistry analysis. The mice were then euthanized by cervical dislocation, dissected and the following organs were collected for histopathology evaluation: lung, kidney, brain, liver and spleen.
For whole blood analysis, the parameters were number of red cells (RBC), number of white cells (WBC), lymphocytes, monocytes, eosinophil, granulocytes, haemoglobin (Hgb), mean corpuscular volume (MCV), hematocrit (HCT), platelet Counts (PLT), Mean corpuscular haemoglobin (MCH) and corpuscular haemoglobin concentration (MCHC). For biochemistry analysis, the parameters were alanine transaminase (ALT), creatinine, alkaline phosphatase (ALP), aspartate aminotransferase (AST), total bilirubin and urea.
The following organs were collected from all the dissected mice: lung, kidney, brain, spleen, and liver. All tissues were fixed in 10% (v/v) buffered formalin and processed for paraffin embedding. Hematoxylin–eosin (HE) was used to stain the histological sections at the histopathology laboratory, Veterinary Laboratory Service Unit, University Putra Malaysia (UPM).

[1] = IN, head doses: RN7-IN10, RN7-IN8 20 mg/kg
[2] = SC, head doses: RN7-IN10, RN7-IN8 20 mg/kg

FLGGLIKWWPWRR-NH2 [RN7-IN6, hybrid peptide of ranalexin (residues 1-7) and indolicidin (residues 8-13)]
ATP released from pneumococcal cells after 1 h (S. pneumoniae): 14.8 ± 0.35 pM | ATP released from pneumococcal cells after 3 h (S. pneumoniae): 11.47 ± 0.32 pM | Eosinophil (ICR (CD-1) mice; [1]): 3.5±0.9% | Erythrocytes, RBC (ICR (CD-1) mice; [1]): 9.12±0.25 10^6/mm^3 | Hematocrit, HCT (ICR (CD-1) mice; [1]): 47.43±0.61% | Hemoglobin Hgb (ICR (CD-1) mice; [1]): 15 ± 0.28 g/dL | Lymphocytes (ICR (CD-1) mice; [1]): 47.67±12.2% | Mean corpuscular haemoglobin concentration, MCHC (ICR (CD-1) mice; [1]): 31.7 ± 0.21 g/dL | Mean corpuscular haemoglobin, MCH (ICR (CD-1) mice; [1]): 16.5 ± 0.17 pg | Mean corpuscular volume, MCV (ICR (CD-1) mice; [1]): 52.66±1.24 µm^3 | Monocytes (ICR (CD-1) mice; [1]): 2.7±0.57% | White blood cells, WBC (ICR (CD-1) mice; [1]): 3.6±0.35 10^3/mm^3 | platelet Counts, PLT (ICR (CD-1) mice; [1]): 597.66±123.23 10^3/mm^3 | Eosinophil (ICR (CD-1) mice; IP, RN7-IN10, RN7-IN8 20 mg/kg): 3.22±1.47% | Erythrocytes, RBC (ICR (CD-1) mice; IP, RN7-IN10, RN7-IN8 20 mg/kg): 8.71±0.44 10^6/mm^3 | Granulocytes (ICR (CD-1) mice; IP, RN7-IN10, RN7-IN8 20 mg/kg): 57.87±11.66% | Hematocrit, HCT (ICR (CD-1) mice; IP, RN7-IN10, RN7-IN8 20 mg/kg): 44.97±1.75% | Hemoglobin Hgb (ICR (CD-1) mice; IP, RN7-IN10, RN7-IN8 20 mg/kg): 15.02 ± 0.59 g/dL | Lymphocytes (ICR (CD-1) mice; IP, RN7-IN10, RN7-IN8 20 mg/kg): 54.6±3.8% | Mean corpuscular haemoglobin concentration, MCHC (ICR (CD-1) mice; IP, RN7-IN10, RN7-IN8 20 mg/kg): 33.42 ± 0.62 g/dL | Mean corpuscular haemoglobin, MCH (ICR (CD-1) mice; IP, RN7-IN10, RN7-IN8 20 mg/kg): 16.67 ± 1.07 pg | Mean corpuscular volume, MCV (ICR (CD-1) mice; IP, RN7-IN10, RN7-IN8 20 mg/kg): 50.5±1.29 µm^3 | Monocytes (ICR (CD-1) mice; IP, RN7-IN10, RN7-IN8 20 mg/kg): 2.53±0.33% | White blood cells, WBC (ICR (CD-1) mice; IP, RN7-IN10, RN7-IN8 20 mg/kg): 4.1±0.72 10^3/mm^3 | platelet Counts, PLT (ICR (CD-1) mice; IP, RN7-IN10, RN7-IN8 20 mg/kg): 540.75±107.41 10^3/mm^3 | maximum IP dose at which no signs of stress or abnormal behavior were evident (non-toxic dose) (ICR (CD-1) mice; IP, doses at 1 h, 12 h, 24 h, no death up to seven days): 10 mg/kg | Eosinophil (ICR (CD-1) mice; [2]): 2.7±0.71% | Erythrocytes, RBC (ICR (CD-1) mice; [2]): 9.59±0.92 10^6/mm^3 | Granulocytes (ICR (CD-1) mice; [2]): 51.12±5.16% | Hematocrit, HCT (ICR (CD-1) mice; [2]): 49.2±4.43% | Hemoglobin Hgb (ICR (CD-1) mice; [2]): 16.17 ± 1.44 g/dL | Lymphocytes (ICR (CD-1) mice; [2]): 51.85±3.3% | Mean corpuscular haemoglobin concentration, MCHC (ICR (CD-1) mice; [2]): 32.87 ± 0.42 g/dL | Mean corpuscular haemoglobin, MCH (ICR (CD-1) mice; [2]): 16.85 ± 0.3 pg | Mean corpuscular volume, MCV (ICR (CD-1) mice; [2]): 50±1.82 µm^3 | Monocytes (ICR (CD-1) mice; [2]): 2.8±0.25% | White blood cells, WBC (ICR (CD-1) mice; [2]): 3.86±0.34 10^3/mm^3 | Alanine transaminase, ALT (ICR (CD-1) mice; [1]): 43.2±7.56 | Alkaline phosphatase, ALP (ICR (CD-1) mice; [1]): 138.33±5.5 | Aspartate aminotransferase, AST (ICR (CD-1) mice; [1]): 140±7.2 | Creatinine (ICR (CD-1) mice; [1]): 40.15±3.6 | Total bilirubin (ICR (CD-1) mice; [1]): 1.95±0.08 | Urea (ICR (CD-1) mice; [1]): 10.14±1.52 | Alkaline phosphatase, ALP (ICR (CD-1) mice; IP, RN7-IN10, RN7-IN8 20 mg/kg): 114.97±24.9 | Aspartate aminotransferase, AST (ICR (CD-1) mice; IP, RN7-IN10, RN7-IN8 20 mg/kg): 176±19.31 | Creatinine (ICR (CD-1) mice; IP, RN7-IN10, RN7-IN8 20 mg/kg): 41.47±4.2 | Total bilirubin (ICR (CD-1) mice; IP, RN7-IN10, RN7-IN8 20 mg/kg): 2.1±0.1 | Urea (ICR (CD-1) mice; IP, RN7-IN10, RN7-IN8 20 mg/kg): 8.97±1.17 | Alanine transaminase, ALT (ICR (CD-1) mice; [2]): 43.32±10.3 | Alkaline phosphatase, ALP (ICR (CD-1) mice; [2]): 106.56±20.1 | Aspartate aminotransferase, AST (ICR (CD-1) mice; [2]): 158.25±18.9 | Creatinine (ICR (CD-1) mice; [2]): 34.89±0.25 | Total bilirubin (ICR (CD-1) mice; [2]): 2.03±0.14 | Urea (ICR (CD-1) mice; [2]): 9.07±2.02
